Key:
rat UT-A1 = molecular target: T1, rat UT-A1 (Rattus norvegicus, UniProt Q62668); assay: UT-A1 inhibition, fluorescence plate reader assay in MDCK cells expressing UT-A1, AQP1 and YFP-H148Q/V163S; format: cell-based
T1 construct: expressed in transfected cells; host or cells: MDCK cells stably co-expressing rat UT-A1, human AQP1 and YFP-H148Q/V163S
T1 sequence (Q62668 1-929): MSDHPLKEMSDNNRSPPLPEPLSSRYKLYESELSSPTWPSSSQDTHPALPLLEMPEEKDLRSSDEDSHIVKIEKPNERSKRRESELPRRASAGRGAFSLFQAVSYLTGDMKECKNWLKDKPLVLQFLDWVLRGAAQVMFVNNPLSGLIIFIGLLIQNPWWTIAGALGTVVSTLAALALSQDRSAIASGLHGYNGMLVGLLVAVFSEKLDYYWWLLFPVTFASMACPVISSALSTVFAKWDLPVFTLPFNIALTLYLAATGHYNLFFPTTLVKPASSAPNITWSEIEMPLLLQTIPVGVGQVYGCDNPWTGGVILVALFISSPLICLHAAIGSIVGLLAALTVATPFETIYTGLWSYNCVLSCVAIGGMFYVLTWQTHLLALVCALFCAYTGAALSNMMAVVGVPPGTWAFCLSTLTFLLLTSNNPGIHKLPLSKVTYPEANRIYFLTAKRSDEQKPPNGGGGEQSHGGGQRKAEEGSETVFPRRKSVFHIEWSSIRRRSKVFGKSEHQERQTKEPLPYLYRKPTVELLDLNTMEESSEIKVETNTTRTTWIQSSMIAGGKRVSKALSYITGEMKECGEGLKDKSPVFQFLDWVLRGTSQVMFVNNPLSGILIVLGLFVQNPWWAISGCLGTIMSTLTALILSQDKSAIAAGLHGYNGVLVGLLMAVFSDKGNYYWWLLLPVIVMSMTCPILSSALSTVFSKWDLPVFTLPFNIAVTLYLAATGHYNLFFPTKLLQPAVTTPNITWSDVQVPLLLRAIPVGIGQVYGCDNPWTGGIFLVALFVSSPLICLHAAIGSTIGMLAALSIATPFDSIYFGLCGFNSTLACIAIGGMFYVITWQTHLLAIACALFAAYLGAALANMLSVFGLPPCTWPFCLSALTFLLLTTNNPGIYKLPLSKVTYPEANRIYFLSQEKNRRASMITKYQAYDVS
Procedure: Primary screening was done using a collection of 50,000 chemically diverse, drug-like compounds from ChemDiv (San Diego, Calif.). For analysis of structure-activity relationships, >300 commercially available analogs (ChemDiv and Asinex, Winston-Salem, N.C.) were tested. Cells were plated on black 96-well Costar microplates with clear plastic bottoms (Corning, Corning, N.Y.) at 15,000 cells/well and cultured for 24 h at 37° C. before assay. Microplates containing cultured cells were washed twice with PBS and 150 μL of test compound (25 μM final) in PBS was added. Eighty wells contained test compounds, and the first and last columns of each plate contained negative (dimethyl sulfoxide, DMSO) and positive (0.35 mM phloretin) controls. The assays were done on a plate reader (Tecan Trading AG, Switzerland) equipped with a custom YFP filter set. Each assay consisted of a continuous 15-s read (5 Hz) in which 50 μL of 3.2 M urea in PBS was injected at 1 s (at 130 μL/s) to give a 800 mM final urea gradient.
MDCK cells stably expressing rat UT-A1 (see, e.g., Frohlich et al. (2006) Am J Physiol Cell Physiol. 291, C600-D606), YFP-H148Q/V163 S (see, e.g., Galietta, et al. (2001) FEBS Lett. 499, 220-224) and human AQP1, as described previously (see, e.g., Esteva-Font et al. (2013) Chem Biol. 20, 1235-1244), were grown in Dulbecco's modified Eagle medium (DMEM) containing 10% fetal bovine serum (FBS), penicillin G (100 U/mL), streptomycin (100 μg/mL), zeocin (500 μg/mL), geneticin (600 μg/mL) and Hygromycin (500 μg/mL) at 37° C., 5% CO2. A Cell Clone with bright YFP fluorescence and relatively low AQP1 expression was used for the screen to maximize dynamic range.
In order to identify UT-A inhibitors suitable for testing in rats, a collection of 50,000 synthetic small molecules was screened. As diagrammed in FIG. 1A (top), the fluorescence cell-based screen utilized MDCK cells stably rat expressing UT-A1, water channel AQP1 and the cytoplasmic chloride-sensing fluorescent protein YFP-H148Q/V163S. As described and validated previously (see, e.g., Esteva-Font et al. (2013) Chem Biol. 20, 1235-1244), extracellular addition of urea results in osmotic water efflux and cell shrinking, which increases intracellular chloride concentration and reduces YFP fluorescence. Urea entry results in increasing YFP fluorescence as cells re-swell. Inhibitors of UT-A1 urea transport produce a lesser reduction in fluorescence and slowed recovery.

rat UT-B = molecular target: T2, rat UT-B (Rattus norvegicus, UniProt P97689); assay: UT-B inhibition, erythrocyte lysis assay; format: cell-based; settings: for IC50: rat erythrocytes
T2 construct: endogenous in cells; host or cells: rat erythrocytes (whole rat blood)
T2 sequence (P97689 1-384): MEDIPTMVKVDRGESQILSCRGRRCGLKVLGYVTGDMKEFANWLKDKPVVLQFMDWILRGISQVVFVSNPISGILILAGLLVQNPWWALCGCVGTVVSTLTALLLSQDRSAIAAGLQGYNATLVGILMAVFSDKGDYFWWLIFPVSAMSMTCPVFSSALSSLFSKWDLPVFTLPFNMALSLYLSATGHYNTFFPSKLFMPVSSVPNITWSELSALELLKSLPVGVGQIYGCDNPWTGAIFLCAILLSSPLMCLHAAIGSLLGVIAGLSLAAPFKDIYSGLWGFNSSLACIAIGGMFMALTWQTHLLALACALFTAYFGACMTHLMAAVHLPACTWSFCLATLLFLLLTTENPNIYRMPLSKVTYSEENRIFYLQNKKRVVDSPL
Procedure: As described (see, e.g., Levin et al. (2007) FASEB J. 21, 551-563), whole rat blood was diluted to a hematocrit of ˜1.5% in PBS containing 1.25 M acetamide and 5 mM glucose. Erythrocyte suspensions (100 μL) were added to 96-well round-bottom microplates and test compounds (1 μL) were added. After 15 min incubation, 20 μL of the erythrocyte suspension was added rapidly to each well containing 180 μL of PBS. Following vigorous mixing, erythrocyte lysis was quantified by absorbance at 710 nm. Non-lysed controls (isosmolar buffer) and lysed controls (0.7 mM phloretin) were added in each plate as negative and positive controls, respectively. Percentage erythrocyte lysis was computed as: % lysis=100% (Aneg−Atest)/(Aneg−Apos), where A is absorbance at 710 nm.
Inhibitor selectivity for rat UT-A1 versus UT-B was investigated using an erythrocyte lysis assay of rat UT-B urea transport, which involved measurement of hypotonic lysis (by near-infrared absorbance) of acetamide-loaded erythrocytes following rapid dilution into acetamide-free buffer.

UT = settings: literature; cited from earlier work

IC50 (rat UT-A1) | selectivity for UT-A1 versus UT-B (rat UT-B; rat UT-A1 versus rat UT-B) | IC50 (rat UT-B) | SMILES | concentration exhibiting activity (UT)
3 µM | high selectivity | – | CC(=O)Nc1ccc(-c2csc(-c3ccccc3)n2)cc1 [UTA1inh-E01] | –
> 50 µM | – | > 50 µM | CC(=O)Nc1ccc(-c2csc(C)n2)cc1 [UTA1inh-E03] | –
1 µM | – | 6 µM | COc1ccc(C)cc1S(=O)(=O)Nc1cccc(N2CCCS2(=O)=O)c1 [UTA1inh-F01] | –
15 µM | – | > 75 µM | Cc1ccc(C)c(S(=O)(=O)Nc2cccc(N3CCCS3(=O)=O)c2)c1 [UTA1inh-F02] | –
3 µM | – | 15 µM | Cc1cc(C)c(S(=O)(=O)Nc2cccc(N3CCCS3(=O)=O)c2)cc1C [UTA1inh-F03] | –
5 µM | – | > 75 µM | COc1ccc(F)cc1S(=O)(=O)Nc1cccc(N2CCCS2(=O)=O)c1 [UTA1inh-F04] | –
3 µM | – | 20 µM | COc1cc(C)c(C)cc1S(=O)(=O)Nc1cccc(N2CCCS2(=O)=O)c1 [UTA1inh-F05] | –
10 µM | – | > 75 µM | Cc1ccc(C)c(S(=O)(=O)Nc2cc(N3CCCS3(=O)=O)ccc2C)c1 [UTA1inh-F06] | –
15 µM | – | > 75 µM | COc1ccc(F)cc1S(=O)(=O)Nc1cc(N2CCCS2(=O)=O)ccc1C [UTA1inh-F07] | –
30 µM | – | 20 µM | COc1cc(C)c(C)cc1S(=O)(=O)Nc1cc(N2CCCS2(=O)=O)ccc1C [UTA1inh-F08] | –
1 µM | – | 8 µM | COc1ccc(N2CCCS2(=O)=O)cc1NS(=O)(=O)c1cc(C)ccc1OC [UTA1inh-F09] | –
5 µM | – | > 75 µM | COc1ccc(N2CCCS2(=O)=O)cc1NS(=O)(=O)c1cc(C)ccc1C [UTA1inh-F10] | –
5 µM | – | – | COc1ccc(OC)c(S(=O)(=O)Nc2ccc(Cl)c(N3CCCS3(=O)=O)c2)c1 [UTA1inh-F12] | –
8 µM | – | – | COc1cc(C)c(C)cc1S(=O)(=O)Nc1ccc(Cl)c(N2CCCS2(=O)=O)c1 [UTA1inh-F13] | –
– | – | – | O=C(CCc1ccc(O)cc1)c1c(O)cc(O)cc1O [phloretin] | > 0.5 mM

— patent US11123340B2, “Small-molecule UT-A-selective urea transport inhibitors” (The Regents of the University of California, priority 2014, dated 2021)
